Test results from ChEMBL document CHEMBL1201862, “PubChem BioAssay data set” (2004).
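In this assay, cells in 96-well plates receive the compound at five concentrations for 48 hours. Endpoints are linearly interpolated between the surrounding concentrations. GI50: concentration for 50% inhibition of growth.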 Active and inactive are the calls of the source. Cut-off read from the data, not from the text of the source: active = GI50 up to about 1.1 µM and inactive = higher.

What was measured:
Experiment in all cases: growth of human tumour cells (NCI), 48 h
[1] = tested on: T47D
[2] = tested on: NCI-H23
[3] = tested on: MDA-MB-231
[4] = tested on: HOP-62
[5] = tested on: UACC-257
[6] = tested on: MDA-N
[7] = tested on: NCI-H460
[8] = tested on: MDA-MB-435
[9] = tested on: U-251
[10] = tested on: NCI-H522
[11] = tested on: SF-539
[12] = tested on: K562
[13] = tested on: HT-29
[14] = tested on: OVCAR-5
[15] = tested on: Malme-3M
[16] = tested on: SW-620
[17] = tested on: 786-0
[18] = tested on: A498
[19] = tested on: ACHN
[20] = tested on: CCRF-CEM

Measured: GI50

Nc1nc(Cl)cc(NCCO)n1
inactive: [1] > 100 µM | [2] > 100 µM | [3] > 100 µM | [4] > 100 µM | [5] > 100 µM | [6] > 100 µM | [7] > 100 µM | [8] > 100 µM | [9] > 100 µM | [10] > 100 µM | [11] > 100 µM | [12] > 100 µM | [13] > 100 µM | [14] > 100 µM | [15] > 100 µM | [16] > 100 µM | [17] > 100 µM | [18] > 100 µM | [19] > 100 µM

O=C1C2=Cc3ccccc3OC2(O)Oc2ccc(O)cc21 (stereo not given)
inactive: [1] > 100 µM | [2] 84.1 µM | [20] 7.83 µM | [3] > 100 µM | [4] 57.1 µM | [5] > 100 µM | [6] > 100 µM | [8] > 100 µM | [9] > 100 µM | [11] > 100 µM | [12] 28.1 µM | [13] > 100 µM | [14] > 100 µM | [15] 91.2 µM | [16] > 100 µM | [17] > 100 µM | [18] > 100 µM | [19] 15.8 µM

CNc1ccc([N+](=O)[O-])cc1C(=O)N1CCC[C@H]1CO
inactive: [1] > 100 µM | [2] > 100 µM | [20] > 100 µM | [3] > 100 µM | [4] > 100 µM | [5] > 100 µM | [6] > 100 µM | [7] > 100 µM | [8] > 100 µM | [9] > 100 µM | [10] > 100 µM | [12] > 100 µM | [13] > 100 µM | [14] > 100 µM | [15] > 100 µM | [16] > 100 µM | [17] > 100 µM | [18] > 100 µM | [19] > 100 µM

c1ccc2c(c1)nc1n2CNCC1
inactive: [1] 37.2 µM | [2] > 100 µM | [3] > 100 µM | [4] > 100 µM | [5] > 100 µM | [6] > 100 µM | [7] > 100 µM | [8] > 100 µM | [9] > 100 µM | [10] 43.1 µM | [11] > 100 µM | [13] 42.2 µM | [14] > 100 µM | [15] 63.7 µM | [16] 34.7 µM | [17] > 100 µM | [18] > 100 µM | [19] > 100 µM

FC(F)(F)c1ccc2c(c1)nc(Cc1ccc(Cl)cc1)n2CC1CCCN2CCCCC12 (stereo not given)
inactive: [1] 6.61 µM | [3] 3.27 µM | [4] 14.1 µM | [5] 2.92 µM | [6] 1.52 µM | [7] 7.66 µM | [8] 6.27 µM | [9] 8.24 µM | [10] 4.37 µM | [12] 4.18 µM | [13] 2.81 µM | [14] 12.5 µM | [15] 1.73 µM | [16] 13.2 µM | [17] 7.67 µM | [18] 14.2 µM | [19] 11.5 µM

COC(=O)C1(NC(=O)C(Cc2ccccc2)N(C(=O)OC(C)(C)C)C(=O)OC(C)(C)C)CCCC1 (stereo not given)
inactive: [1] 36.6 µM | [2] 30.5 µM | [20] 22.9 µM | [3] 80.9 µM | [4] 77.8 µM | [6] > 100 µM | [7] 46.1 µM | [8] 83.9 µM | [9] 49.5 µM | [11] > 100 µM | [12] 43 µM | [14] 58.6 µM | [16] > 100 µM | [17] > 10 µM | [18] 25.8 µM | [19] > 10 µM

Cc1cc(Nc2ccc(S(=O)(=O)O)c3cc(S(=O)(=O)O)cc(S(=O)(=O)O)c23)c2ccccc2n1
inactive: [1] > 100 µM | [2] > 100 µM | [3] > 100 µM | [4] > 100 µM | [5] > 100 µM | [6] > 100 µM | [7] > 100 µM | [8] > 100 µM | [9] > 100 µM | [10] > 100 µM | [11] > 100 µM | [13] > 100 µM | [14] > 100 µM | [15] > 100 µM | [16] > 100 µM | [17] > 100 µM | [18] > 100 µM | [19] > 100 µM

CCOC(=O)c1c2cccccc-2nc1Nc1cccc2c(C)ccnc12
inactive: [1] 2.66 µM | [2] > 10 µM | [20] 4.88 µM | [3] > 10 µM | [4] > 10 µM | [5] 9.2 µM | [6] > 10 µM | [7] 7.31 µM | [8] > 10 µM | [9] > 10 µM | [11] > 10 µM | [12] 4.01 µM | [13] 4.89 µM | [14] > 10 µM | [15] > 10 µM | [16] > 10 µM | [17] > 10 µM | [18] > 10 µM | [19] 6.14 µM

Cc1cn(C2CC(n3cc(Cn4cc(I)c(=O)[nH]c4=O)nn3)C(CO)O2)c(=O)[nH]c1=O (stereo not given)
inactive: [1] > 100 µM | [2] > 100 µM | [20] > 100 µM | [3] > 100 µM | [4] > 100 µM | [5] > 100 µM | [6] > 100 µM | [8] > 100 µM | [9] > 100 µM | [11] > 100 µM | [14] > 100 µM | [16] > 100 µM | [18] > 100 µM | [19] > 100 µM

C/C(Cc1ccc2c(c1)OCO2)=N\N=c1\sc2ccccc2n1C
inactive: [1] 58.7 µM | [2] 78 µM | [20] 92.5 µM | [3] > 100 µM | [4] > 100 µM | [5] > 100 µM | [6] 83.2 µM | [8] > 100 µM | [9] > 100 µM | [10] > 100 µM | [11] > 100 µM | [12] > 100 µM | [13] 42.8 µM | [14] > 100 µM | [15] > 100 µM | [16] > 100 µM | [17] > 100 µM | [18] > 100 µM | [19] > 100 µM

c1ccc(COC2C3COC(O3)C(OCc3ccccc3)C2OCc2ccccc2)cc1 (stereo not given)
inactive: [1] 22.9 µM | [2] 77.3 µM | [20] 11.2 µM | [3] > 100 µM | [4] 71.3 µM | [5] 71.1 µM | [6] 63.7 µM | [7] 22 µM | [8] 18.2 µM | [9] > 100 µM | [10] 15.1 µM | [11] > 100 µM | [12] 27.9 µM | [14] 69.5 µM | [16] 40.1 µM | [17] 64.4 µM | [18] > 100 µM | [19] 27.5 µM
